Measurements published in ChEMBL document CHEMBL6153147 (J Med Chem, 2025).

What was measured:
[1] = AUC (0 to infinity) in C57BL/6 mouse at 1 mg/kg, iv measured for 0.5 to 12 htr by LC-MS/MS analysis; type: ADME, organism-based; conditions: in vivo, time 0.5-12 hrs
[2] = Clearance in C57BL/6 mouse at 1 mg/kg, iv measured for 0.5 to […] htr by LC-MS/MS analysis; type: ADME, organism-based; conditions: in vivo, time 0.5-12 hrs
[3] = Acute hematopoietic toxicity in mouse assessed as effect on platelets at 500 mg/kg, IG qd treated for 7 days; type: organism-based; conditions: in vivo, po, 168 h, time 7 day
[4] = test system: CCRF-CEM; assay: cells; conditions: Homo sapiens
[5] = AUC (0 to t) in C57BL/6 mouse at 10 mg/kg, po measured for 0.5 to […] htr by LC-MS/MS analysis; type: ADME, organism-based; conditions: in vivo, time 0.5-12 hrs
[6] = target: cGMP-dependent protein kinase 2 (Homo sapiens) (UniProt Q13237); assay: Inhibition of human PRKG2 assessed as residual activity at 10 uM by kinome selectivity profiling analysis relative to control
[7] = C0 in C57BL/6 mouse at 1 mg/kg, iv measured for 0.5 to 12 htr by LC-MS/MS analysis; type: ADME, organism-based; conditions: in vivo, time 0.5-12 hrs
[8] = test system: SW-620; assay: cells; conditions: Homo sapiens
[9] = target: Cytochrome P450 2C19 (Homo sapiens, UniProt P33261); assay: Inhibition of CYP2C19 in human liver microsomes using S-mephenytoin as substrate preincubated with compound followed by substrate addition measured after 10 mins in presence of NADPH by LC-MS/MS analysis; type: ADME, Microsome
[10] = target: Serine/threonine-protein kinase PLK1 (Homo sapiens, UniProt P53350); assay: Inhibition of human PLK1 using ATF2 as substrate incubated for 40 mins in presence of [gamma-33P]ATP/Mg acetate by scintillation counting analysis
[11] = target: Cytochrome P450 2D6 (Homo sapiens, UniProt P10635); assay: Inhibition of CYP2D6 in human liver microsomes using dextromethorphan as substrate preincubated with compound followed by substrate addition measured after 10 mins in presence of NADPH by LC-MS/MS analysis; type: ADME, Microsome
Cytochrome P450 2D6, sequence (P10635 whole entry): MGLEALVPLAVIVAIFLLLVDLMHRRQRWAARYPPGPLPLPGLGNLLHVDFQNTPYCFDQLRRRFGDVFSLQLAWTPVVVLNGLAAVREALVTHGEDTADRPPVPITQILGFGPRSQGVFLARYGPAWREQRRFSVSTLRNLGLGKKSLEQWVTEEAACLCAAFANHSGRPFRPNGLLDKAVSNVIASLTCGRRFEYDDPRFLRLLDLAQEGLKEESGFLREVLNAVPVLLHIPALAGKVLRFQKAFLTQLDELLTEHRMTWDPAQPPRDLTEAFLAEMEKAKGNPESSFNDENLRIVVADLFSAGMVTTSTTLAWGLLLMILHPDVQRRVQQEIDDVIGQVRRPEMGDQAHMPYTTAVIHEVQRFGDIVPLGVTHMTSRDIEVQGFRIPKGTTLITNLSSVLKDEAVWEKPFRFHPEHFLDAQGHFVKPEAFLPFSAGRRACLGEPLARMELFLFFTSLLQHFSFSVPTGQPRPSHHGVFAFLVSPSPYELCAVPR

cGMP-dependent protein kinase 2 (Homo sapiens), sequence (Q13237 whole entry): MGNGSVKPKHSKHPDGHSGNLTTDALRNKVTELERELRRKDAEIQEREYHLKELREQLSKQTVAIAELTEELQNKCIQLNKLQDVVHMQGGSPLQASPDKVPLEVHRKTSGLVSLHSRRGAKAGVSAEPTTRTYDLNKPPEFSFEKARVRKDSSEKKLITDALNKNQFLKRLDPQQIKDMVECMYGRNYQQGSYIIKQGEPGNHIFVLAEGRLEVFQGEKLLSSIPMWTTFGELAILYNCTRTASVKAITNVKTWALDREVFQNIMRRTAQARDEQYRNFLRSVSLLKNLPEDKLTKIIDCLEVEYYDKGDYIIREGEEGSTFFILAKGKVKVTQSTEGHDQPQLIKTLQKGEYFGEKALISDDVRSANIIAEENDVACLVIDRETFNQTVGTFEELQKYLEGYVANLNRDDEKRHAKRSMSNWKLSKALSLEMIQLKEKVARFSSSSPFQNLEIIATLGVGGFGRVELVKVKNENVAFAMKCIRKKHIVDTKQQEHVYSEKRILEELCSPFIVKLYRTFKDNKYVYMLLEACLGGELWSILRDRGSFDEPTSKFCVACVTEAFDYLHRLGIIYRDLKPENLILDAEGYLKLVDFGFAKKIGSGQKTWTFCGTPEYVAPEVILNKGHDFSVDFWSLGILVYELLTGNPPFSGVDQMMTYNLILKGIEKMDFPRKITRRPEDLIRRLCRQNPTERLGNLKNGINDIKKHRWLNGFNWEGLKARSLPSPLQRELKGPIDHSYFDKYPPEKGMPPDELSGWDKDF
Cytochrome P450 2C19, sequence (P33261 whole entry): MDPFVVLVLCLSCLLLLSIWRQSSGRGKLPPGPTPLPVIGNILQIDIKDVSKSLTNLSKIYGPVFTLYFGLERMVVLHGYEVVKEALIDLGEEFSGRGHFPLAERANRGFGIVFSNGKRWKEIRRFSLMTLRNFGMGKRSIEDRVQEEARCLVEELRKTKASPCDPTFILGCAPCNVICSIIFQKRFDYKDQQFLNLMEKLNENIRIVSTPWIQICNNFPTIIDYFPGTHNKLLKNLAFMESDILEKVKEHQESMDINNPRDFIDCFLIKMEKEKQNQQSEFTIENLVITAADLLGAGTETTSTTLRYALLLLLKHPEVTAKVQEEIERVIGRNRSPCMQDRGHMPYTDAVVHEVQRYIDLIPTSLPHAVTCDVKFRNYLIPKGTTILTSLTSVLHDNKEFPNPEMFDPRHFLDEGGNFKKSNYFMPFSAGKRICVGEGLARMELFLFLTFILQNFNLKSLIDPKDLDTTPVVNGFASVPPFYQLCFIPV
Serine/threonine-protein kinase PLK1, sequence (P53350 whole entry): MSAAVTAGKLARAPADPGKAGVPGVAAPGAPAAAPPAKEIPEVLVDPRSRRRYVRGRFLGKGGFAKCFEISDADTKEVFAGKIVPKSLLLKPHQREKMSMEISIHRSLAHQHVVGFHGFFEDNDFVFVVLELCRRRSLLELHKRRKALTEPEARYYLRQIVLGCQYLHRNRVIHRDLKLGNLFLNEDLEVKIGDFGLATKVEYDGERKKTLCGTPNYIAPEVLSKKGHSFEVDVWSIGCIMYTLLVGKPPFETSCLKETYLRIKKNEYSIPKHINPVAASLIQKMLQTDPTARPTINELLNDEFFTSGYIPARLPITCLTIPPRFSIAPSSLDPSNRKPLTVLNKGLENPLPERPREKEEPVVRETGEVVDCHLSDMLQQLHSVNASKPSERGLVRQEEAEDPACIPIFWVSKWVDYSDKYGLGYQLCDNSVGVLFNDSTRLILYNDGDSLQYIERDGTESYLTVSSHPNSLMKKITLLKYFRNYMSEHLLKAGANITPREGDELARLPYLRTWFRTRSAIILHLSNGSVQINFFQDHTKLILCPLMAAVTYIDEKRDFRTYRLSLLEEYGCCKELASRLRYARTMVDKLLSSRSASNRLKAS

## CC[C@@H]1C(=O)N(C)c2cnc(Nc3cc(N4CCN(C)CC4)cc(Cl)c3OCCCO)nc2N1C1CCCC1
[1]
  AUC(0-inf): 183 ng·h/mL
[2]
  clearance: 91 mL/min/kg
[3]
  Activity: Non-toxic
[4]
  IC50: 41 nM
[5]
  AUC(0-t): 820 ng·h/mL
[6]
  Activity: 110%
[7]
  C0: 328 ng/mL
[8]
  IC50: 8.2 nM
[9]
  IC50: 1900 nM
[10]
  IC50: 20 nM
[11]
  IC50: > 10000 nM
